Test results: patent US10457709B2, “Antimicrobial peptides, their variants and uses” (priority 2015, dated 2019)
Where two headings read alike, the source gives them in different places. Square brackets hold non-standard residues; d marks the D form. Peptide text beside a SMILES is read from it.

Experiments:
[1] = system: Acinetobacter baumannii clinical strains; assay type: cell-based; design: Minimum inhibitory concentration: unit: μg/ml; details: microdilution, Muller Hinton broth-cation adjusted, 0.02% BSA, 0.2% acetic acid
How it was run: (§1)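 Antifungal testing uses potato dextrose broth; antibacterial testing uses Mueller Hinton broth. Cell density is set to 5.0×10^5 cfu/ml and incubation runs 20–24 h at 37° C. MIC is the lowest concentration, within 0.125–128 μg/ml, at which no growth is visible.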

[2] = system: Enterobacter cloacae clinical strains; assay type: cell-based; design: Minimum inhibitory concentration: unit: μg/ml; details: microdilution, Muller Hinton broth-cation adjusted, 0.02% BSA, 0.2% acetic acid
How it was run: as §1

[3] = system: Proteus mirabilis clinical strains; assay type: cell-based; design: Minimum inhibitory concentration: unit: μg/ml; details: microdilution, Muller Hinton broth-cation adjusted, 0.02% BSA, 0.2% acetic acid
How it was run: as §1

[4] = system: Serratia marcescens clinical strains; assay type: cell-based; design: Minimum inhibitory concentration: unit: μg/ml; details: microdilution, Muller Hinton broth-cation adjusted, 0.02% BSA, 0.2% acetic acid
How it was run: as §1

[5] = system: Staphylococcus aureus clinical strains; assay type: cell-based; design: Minimum inhibitory concentration: unit: μg/ml; details: microdilution, Muller Hinton broth-cation adjusted, 0.02% BSA, 0.2% acetic acid
How it was run: as §1

[6] = system: Streptococcus pneumoniae clinical strains; assay type: cell-based; design: Minimum inhibitory concentration: unit: μg/ml; details: microdilution, Muller Hinton broth-cation adjusted, 0.02% BSA, 0.2% acetic acid
How it was run: as §1

[7] = system: Candida albicans clinical strains; assay: MIC, clinical yeast strains; assay type: cell-based; design: unit: μg/ml
How it was run: as §1

[8] = system: C. glabrata clinical strains; assay: MIC, clinical yeast strains; assay type: cell-based, Candida glabrata; design: unit: µg/ml
How it was run: as §1

[9] = system: C. parapsilosis clinical strains; assay: MIC, clinical yeast strains; assay type: cell-based, Candida parapsilosis; design: unit: µg/ml
How it was run: as §1

[10] = system: C. quillermondiae clinical strains; assay: MIC, clinical yeast strains; assay type: cell-based, Candida quillermondiae; design: unit: μg/ml; details: C. quillermondiae clinical yeast strain 1
How it was run: as §1

[11] = system: Escherichia coli clinical strains; assay type: cell-based; details: microdilution, Muller Hinton broth-cation adjusted, 0.02% BSA, 0.2% acetic acid
How it was run: as §1

[12] = system: Klebsiella pneumoniae clinical strains; assay type: cell-based; details: microdilution, Muller Hinton broth-cation adjusted, 0.02% BSA, 0.2% acetic acid
How it was run: as §1

[13] = system: Pseudomonas aeruginosa clinical strains; assay type: cell-based; details: microdilution, Muller Hinton broth-cation adjusted, 0.02% BSA, 0.2% acetic acid
How it was run: as §1

How did the Minimum inhibitory concentration ([1]; Acinetobacter baumannii clinical strain 1) turn out when `CC[C@@H](C)[C@@H](NC(=O)[C@@H](CC(C)C)NC(=O)[C@@H](CCCNC(=N)N)NC(=O)[C@H](N)CCCNC(=N)N)C(=O)N[C@H](Cc1c[nH]c2ccccc12)C(=O)N[C@H](CCCNC(=N)N)C(=O)N[C@H](CCCNC(=N)N)C(=O)N[C@H](Cc1ccccc1)C(=O)N[C@H](CCCCN)C(=O)N[C@H](Cc1c[nH]c2ccccc12)C(=O)N[C@H](CC(C)C)C(=O)N[C@H](CCCNC(=N)N)C(=O)O` [Chain204D] (H-[dR][dR][dL][dI][dW][dR][dR][dF][dK][dW][dL][dR]-OH) was run?
Its Minimum inhibitory concentration is 4.

And the Minimum inhibitory concentration ([1]; Acinetobacter baumannii clinical strain 2)?
The Minimum inhibitory concentration was 4.

And the Minimum inhibitory concentration ([1]; Acinetobacter baumannii clinical strain 3)?
The Minimum inhibitory concentration was 4.

What about the Minimum inhibitory concentration ([1]; Acinetobacter baumannii clinical strain 4) of the same compound?
Its Minimum inhibitory concentration is 4.

And the Minimum inhibitory concentration ([1]; Acinetobacter baumannii clinical strain 5)?
Its Minimum inhibitory concentration is 4.

And the Minimum inhibitory concentration ([2]; Enterobacter cloacae clinical strain 1)?
Its Minimum inhibitory concentration is 4.

And the Minimum inhibitory concentration ([2]; Enterobacter cloacae clinical strain 2)?
The Minimum inhibitory concentration was 8.

What about the Minimum inhibitory concentration ([2]; Enterobacter cloacae clinical strain 3) of the same compound?
The Minimum inhibitory concentration was 4.

And the Minimum inhibitory concentration ([2]; Enterobacter cloacae clinical strain 4)?
The Minimum inhibitory concentration was 8.

And the Minimum inhibitory concentration ([2]; Enterobacter cloacae clinical strain 5)?
The Minimum inhibitory concentration was 2.

What about the Minimum inhibitory concentration ([3]; Proteus mirabilis clinical strain 1) of the same compound?
Its Minimum inhibitory concentration is greater than 128.

And the Minimum inhibitory concentration ([3]; Proteus mirabilis clinical strain 2)?
The Minimum inhibitory concentration was 32.

What about the Minimum inhibitory concentration ([3]; Proteus mirabilis clinical strain 3) of the same compound?
The Minimum inhibitory concentration was 64.

What about the Minimum inhibitory concentration ([3]; Proteus mirabilis clinical strain 4) of the same compound?
Its Minimum inhibitory concentration is greater than 128.

And the Minimum inhibitory concentration ([3]; Proteus mirabilis clinical strain 5)?
Its Minimum inhibitory concentration is greater than 128.

What about the Minimum inhibitory concentration ([4]; Serratia marcescens clinical strain 1) of the same compound?
The Minimum inhibitory concentration was greater than 128.

What about the Minimum inhibitory concentration ([4]; Serratia marcescens clinical strain 2) of the same compound?
Its Minimum inhibitory concentration is greater than 128.

What about the Minimum inhibitory concentration ([4]; Serratia marcescens clinical strain 3) of the same compound?
The Minimum inhibitory concentration was 128.

What about the Minimum inhibitory concentration ([4]; Serratia marcescens clinical strain 4) of the same compound?
The Minimum inhibitory concentration was greater than 128.

What about the Minimum inhibitory concentration ([4]; Serratia marcescens clinical strain 5) of the same compound?
The Minimum inhibitory concentration was greater than 128.

And the Minimum inhibitory concentration ([5]; Staphylococcus aureus clinical strain 1)?
The Minimum inhibitory concentration was 1.

And the Minimum inhibitory concentration ([5]; Staphylococcus aureus clinical strain 2)?
The Minimum inhibitory concentration was 2.

And the Minimum inhibitory concentration ([5]; Staphylococcus aureus clinical strain 3)?
Its Minimum inhibitory concentration is 2.

What about the Minimum inhibitory concentration ([5]; Staphylococcus aureus clinical strain 4) of the same compound?
The Minimum inhibitory concentration was 1.

What about the Minimum inhibitory concentration ([5]; Staphylococcus aureus clinical strain 5) of the same compound?
Its Minimum inhibitory concentration is 1.

What about the Minimum inhibitory concentration ([6]; Streptococcus pneumoniae clinical strain 1) of the same compound?
The Minimum inhibitory concentration was 4.

What about the Minimum inhibitory concentration ([6]; Streptococcus pneumoniae clinical strain 2) of the same compound?
The Minimum inhibitory concentration was 4.

What about the Minimum inhibitory concentration ([6]; Streptococcus pneumoniae clinical strain 3) of the same compound?
Its Minimum inhibitory concentration is 4.

What about the Minimum inhibitory concentration ([6]; Streptococcus pneumoniae clinical strain 4) of the same compound?
The Minimum inhibitory concentration was 4.

What about the Minimum inhibitory concentration ([6]; Streptococcus pneumoniae clinical strain 5) of the same compound?
The Minimum inhibitory concentration was 4.

What about the Minimum inhibitory concentration ([7]; Candida albicans clinical yeast strain 1) of the same compound?
The Minimum inhibitory concentration was 8.

What about the Minimum inhibitory concentration ([7]; Candida albicans clinical yeast strain 2) of the same compound?
Its Minimum inhibitory concentration is 8.

And the Minimum inhibitory concentration ([7]; Candida albicans clinical yeast strain 3)?
Its Minimum inhibitory concentration is 8.

And the Minimum inhibitory concentration ([7]; Candida albicans clinical yeast strain 4)?
The Minimum inhibitory concentration was 8.

And the Minimum inhibitory concentration ([7]; Candida albicans clinical yeast strain 5)?
Its Minimum inhibitory concentration is 8.

What about the Minimum inhibitory concentration ([8]; C. glabrata clinical yeast strain 1) of the same compound?
Its Minimum inhibitory concentration is 4.

And the Minimum inhibitory concentration ([8]; C. glabrata clinical yeast strain 2)?
The Minimum inhibitory concentration was 8.

What about the Minimum inhibitory concentration ([8]; C. glabrata clinical yeast strain 3) of the same compound?
The Minimum inhibitory concentration was 32.

What about the Minimum inhibitory concentration ([8]; C. glabrata clinical yeast strain 4) of the same compound?
Its Minimum inhibitory concentration is 32.

What about the Minimum inhibitory concentration ([9]; C. parapsilosis clinical yeast strain 1) of the same compound?
The Minimum inhibitory concentration was 4.

What about the Minimum inhibitory concentration ([9]; C. parapsilosis clinical yeast strain 2) of the same compound?
Its Minimum inhibitory concentration is 4.

And the Minimum inhibitory concentration ([9]; C. parapsilosis clinical yeast strain 3)?
The Minimum inhibitory concentration was 8.

What about the Minimum inhibitory concentration ([9]; C. parapsilosis clinical yeast strain 4) of the same compound?
The Minimum inhibitory concentration was 8.

And the Minimum inhibitory concentration [10]?
Its Minimum inhibitory concentration is 4.

What about the Minimum inhibitory concentration ([11]; Escherichia coli clinical strain 1) of the same compound?
The Minimum inhibitory concentration was 8.

What about the Minimum inhibitory concentration ([11]; Escherichia coli clinical strain 2) of the same compound?
Its Minimum inhibitory concentration is 1.

What about the Minimum inhibitory concentration ([11]; Escherichia coli clinical strain 3) of the same compound?
The Minimum inhibitory concentration was 1.

And the Minimum inhibitory concentration ([11]; Escherichia coli clinical strain 4)?
Its Minimum inhibitory concentration is 1.

What about the Minimum inhibitory concentration ([11]; Escherichia coli clinical strain 5) of the same compound?
Its Minimum inhibitory concentration is 1.

What about the Minimum inhibitory concentration ([12]; Klebsiella pneumoniae clinical strain 1) of the same compound?
The Minimum inhibitory concentration was 8.

And the Minimum inhibitory concentration ([12]; Klebsiella pneumoniae clinical strain 2)?
The Minimum inhibitory concentration was 4.

And the Minimum inhibitory concentration ([12]; Klebsiella pneumoniae clinical strain 3)?
The Minimum inhibitory concentration was 16.

What about the Minimum inhibitory concentration ([12]; Klebsiella pneumoniae clinical strain 4) of the same compound?
Its Minimum inhibitory concentration is 4.

What about the Minimum inhibitory concentration ([12]; Klebsiella pneumoniae clinical strain 5) of the same compound?
Its Minimum inhibitory concentration is 2.

And the Minimum inhibitory concentration ([13]; Pseudomonas aeruginosa clinical strain 1)?
The Minimum inhibitory concentration was 4.

What about the Minimum inhibitory concentration ([13]; Pseudomonas aeruginosa clinical strain 2) of the same compound?
Its Minimum inhibitory concentration is 16.

And the Minimum inhibitory concentration ([13]; Pseudomonas aeruginosa clinical strain 3)?
Its Minimum inhibitory concentration is 8.

And the Minimum inhibitory concentration ([13]; Pseudomonas aeruginosa clinical strain 4)?
The Minimum inhibitory concentration was 8.

What about the Minimum inhibitory concentration ([13]; Pseudomonas aeruginosa clinical strain 5) of the same compound?
The Minimum inhibitory concentration was 4.
